What is called pIC50 is the negative decadic logarithm of the IC50, by convention in mol/L.

We go through three compounds from ChEMBL document CHEMBL4411300 (Eur J Med Chem, 2019).

Data set [1] deals with Trypanosoma cruzi. Put plainly: Antitrypanosomal activity against Trypanosoma cruzi MHOM/Pe/2011/Arequipa DTU 5 trypomastigotes infected in Balb/c mouse assessed as parasite-free bone marrow at 20 mg/kg, po pretreated once daily for 5 consecutive days starting from day 75 post infection followed by cyclophosphamide-induced immunosuppression on day 100 post infection every 4 days for a maximum of 3 doses measured on day 127 post infection by PCR method. It counts as functional.

Data set [2] concerns Trypanosoma cruzi. Description: Antitrypanosomal activity against Trypanosoma cruzi MHOM/Pe/2011/Arequipa DTU 5 trypomastigotes infected in Balb/c mouse assessed as parasite-free adipose tissue at 20 mg/kg, po pretreated once daily for 5 consecutive days starting from day 75 post infection followed by cyclophosphamide-induced immunosuppression on day 100 post infection every 4 days for a maximum of 3 doses measured on day 127 post infection by PCR method. It counts as functional.

Data set [3] can be described thus: Hepatotoxicity in Balb/c mouse infected with Trypanosoma cruzi MHOM/Pe/2011/Arequipa DTU 5 trypomastigotes assessed as increase in serum ALT to GPT level at 20 mg/kg, po once daily for 5 consecutive days starting from day 10 post infection measured on day 16 post infection relative to control. The data set is classed as toxicity, organism-based. To be noted: in vivo.

For data set [4], the system named is Trypanosoma cruzi. Description: Antitrypanosomal activity against Trypanosoma cruzi MHOM/Pe/2011/Arequipa DTU 5 trypomastigotes infected in Balb/c mouse assessed as reduction in parasitaemia level at 20 mg/kg, po once daily for 5 consecutive days starting from day 10 post infection measured on day 23 post infection by Neubauer chamber method relative to control. The data set is classed as functional.

Data set [5] can be described thus: Cardiotoxicity in Balb/c mouse infected with Trypanosoma cruzi MHOM/Pe/2011/Arequipa DTU 5 trypomastigotes assessed as decrease in serum LDH level at 20 mg/kg, po once daily for 5 consecutive days starting from day 75 post infection measured on day 127 post infection relative to control. The data set is classed as toxicity, organism-based. Also on record: scale not given: the % may be the effect or the level left. The following applies: in vivo.

Data set [6] in a line: Cardiotoxicity in Balb/c mouse infected with Trypanosoma cruzi MHOM/Pe/2011/Arequipa DTU 5 trypomastigotes assessed as decrease in serum LDH level at 20 mg/kg, po once daily for 5 consecutive days starting from day 75 post infection measured on day 81 post infection relative to control. The data set is classed as toxicity, organism-based. Also on record: scale not given: the % may be the effect or the level left. To be noted: in vivo.

The nature of data set [7]: Hepatotoxicity in Balb/c mouse infected with Trypanosoma cruzi MHOM/Pe/2011/Arequipa DTU 5 trypomastigotes assessed as increase in total bilirubin level at 20 mg/kg, po once daily for 5 consecutive days starting from day 75 post infection measured on day 81 post infection relative to control. It counts as toxicity, organism-based. To be noted: in vivo.
The test system of data set [8] is Trypanosoma cruzi. Description: Antitrypanosomal activity against Trypanosoma cruzi MHOM/Pe/2011/Arequipa DTU 5 epimastigotes assessed as effect on parasite glycolytic pathway by measuring decrease in succinate excretion at IC25 after 72 hrs by 1H NMR method relative to control. It counts as functional. On the set-up: scale not given: the % may be the effect or the level left.

A short description of data set [9]: Selectivity index, ratio of IC50 for African green monkey Vero cells to IC50 for Trypanosoma cruzi TINF/CH/1956/Tulahuen DTU 6 amastigotes infected in African green monkey Vero cells. The data set is classed as toxicity. To be noted: read-out: Ratio IC50.
Data set [10] is described as follows: Hepatotoxicity in Balb/c mouse infected with Trypanosoma cruzi MHOM/Pe/2011/Arequipa DTU 5 trypomastigotes assessed as change in alkaline phosphatase level at 20 mg/kg, po once daily for 5 consecutive days starting from day 75 post infection measured on day 127 post infection (reference value: 149 U/L). The data set is classed as toxicity, organism-based. To be noted: in vivo.

In data set [11] the test system is Trypanosoma cruzi. Description: Antitrypanosomal activity against Trypanosoma cruzi MHOM/Pe/2011/Arequipa DTU 5 epimastigotes assessed as effect on parasite glycolytic pathway by measuring decrease in ethanol excretion at IC25 after 72 hrs by 1H NMR method. The data set is classed as functional. Also on record: scale not given: the % may be the effect or the level left.

In data set [12] the test system is Trypanosoma cruzi. Description: Trypanocidal activity against Trypanosoma cruzi MHOM/Pe/2011/Arequipa DTU 5 epimastigotes after 48 to 72 hrs by resazurin dye based assay. The data set is classed as functional, organism-based. (In general: The colour change of resazurin is a common sign of viable cells or microbes.)
Data set [13] deals with Trypanosoma cruzi. Description: Trypanocidal activity against Trypanosoma cruzi MHOM/Pe/2011/Arequipa DTU 5 amastigotes infected in African green monkey Vero cells after 72 hrs by Giemsa-staining based microscopic assay. It counts as functional, organism-based. The following applies: MHOM/Pe/2011/Arequipa DTU 5, Vero.
Data set [14] relates to Trypanosoma cruzi. Description: Antitrypanosomal activity against Trypanosoma cruzi MHOM/Pe/2011/Arequipa DTU 5 epimastigotes assessed as effect on parasite glycolytic pathway by measuring decrease in D-lactate excretion at IC25 after 72 hrs by 1H NMR method. It counts as functional, organism-based.
Data set [15] concerns Trypanosoma cruzi. Put plainly: Antitrypanosomal activity against Trypanosoma cruzi MHOM/Pe/2011/Arequipa DTU 5 epimastigotes assessed as effect on parasite glycolytic pathway by measuring decrease in L-alanine excretion at IC25 after 72 hrs by 1H NMR method. The data set is classed as functional, organism-based.
Data set [16] in a line: Toxicity in Balb/c mouse assessed as death at 20 mg/kg, po once daily for 5 consecutive days starting from day 75 post infection. The data set is classed as organism-based. To be noted: in vivo.
A short description of data set [17]: Selectivity index, ratio of IC50 for African green monkey Vero cells to IC50 for Trypanosoma cruzi TINF/CH/1956/Tulahuen DTU 6 epimastigotes. The data set is classed as toxicity. To be noted: read-out: Ratio IC50.
The nature of data set [18]: Hepatotoxicity in Balb/c mouse infected with Trypanosoma cruzi MHOM/Pe/2011/Arequipa DTU 5 trypomastigotes assessed as decrease in ratio of serum ALT to GPT level at 20 mg/kg, po once daily for 5 consecutive days starting from day 75 post infection measured on day 81 post infection relative to control. The data set is classed as toxicity, organism-based. On the set-up: scale not given: the % may be the effect or the level left. To be noted: in vivo.

Data set [19] has as its system Trypanosoma cruzi. Description: Antitrypanosomal activity against Trypanosoma cruzi MHOM/Pe/2011/Arequipa DTU 5 epimastigotes assessed as effect on parasite glycolytic pathway by measuring increase in glycerol excretion at IC25 after 72 hrs by 1H NMR method. It counts as functional, organism-based.
Data set [20] concerns the target Superoxide dismutase [Cu-Zn] (Homo sapiens, UniProt P00441). Description: Inhibition of human erythrocyte CuZn-SOD by UV-Visible spectrophotometric method.
Data set [21] can be described thus: Selectivity index, ratio of IC50 for African green monkey Vero cells to IC50 for Trypanosoma cruzi IRHOD/CO/2008/SN3 DTU 1 epimastigotes. The data set is classed as toxicity. The following applies: read-out: Ratio IC50.
Data set [22] is described as follows: Hepatotoxicity in Balb/c mouse infected with Trypanosoma cruzi MHOM/Pe/2011/Arequipa DTU 5 trypomastigotes assessed as decrease in ratio of serum AST to GOT level at 20 mg/kg, po once daily for 5 consecutive days starting from day 75 post infection measured on day 127 post infection relative to control. The data set is classed as toxicity, organism-based. On the set-up: scale not given: the % may be the effect or the level left. To be noted: in vivo.

The nature of data set [23]: Selectivity index, ratio of IC50 for African green monkey Vero cells to IC50 for Trypanosoma cruzi MHOM/Pe/2011/Arequipa DTU 5 amastigotes infected in African green monkey Vero cells. To be noted: read-out: Ratio IC50. The data set is classed as toxicity.
Data set [24] in a line: Toxicity in Balb/c mouse assessed as death at 20 mg/kg, po once daily for 5 consecutive days starting from day 10 post infection. It counts as organism-based. The following applies: in vivo.
Data set [25] in a line: Selectivity index, ratio of IC50 for African green monkey Vero cells to IC50 for Trypanosoma cruzi MHOM/Pe/2011/Arequipa DTU 5 trypomastigotes derived from infected Balb/c albino mouse. It counts as toxicity. To be noted: read-out: Ratio IC50.
The nature of data set [26]: Toxicity in Balb/c mouse assessed as reduction in body mass at 20 mg/kg, po once daily for 5 consecutive days starting from day 10 post infection relative to control. It counts as organism-based. Also on record: scale not given: the % may be the effect or the level left. To be noted: in vivo.
Data set [27] is described as follows: Selectivity index, ratio of IC50 for African green monkey Vero cells to IC50 for Trypanosoma cruzi TINF/CH/1956/Tulahuen DTU 6 trypomastigotes derived from infected Balb/c albino mouse. To be noted: read-out: Ratio IC50. The data set is classed as toxicity.
The subject of data set [28] is Trypanosoma cruzi. Description: Trypanocidal activity against Trypanosoma cruzi IRHOD/CO/2008/SN3 DTU 1 trypomastigotes derived from infected Balb/c albino mouse after 24 hrs by resazurin dye based assay. The data set is classed as functional, organism-based. The following applies: IRHOD/CO/2008/SN3 DTU 1, 24 h.

pIC50: −log10 of the molar value. Activity calls are given as the source filed them. No cut-off for these calls is given here.

Superoxide dismutase [Cu-Zn], sequence (P00441 whole entry): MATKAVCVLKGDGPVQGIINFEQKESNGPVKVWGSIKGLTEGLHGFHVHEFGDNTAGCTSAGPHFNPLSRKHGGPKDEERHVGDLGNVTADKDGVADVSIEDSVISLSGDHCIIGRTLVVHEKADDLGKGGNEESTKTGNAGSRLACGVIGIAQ

For `O=C(Cn1ccnc1[N+](=O)[O-])NCc1ccccc1` [BENZNIDAZOLE], the Activity was 75% with Trypanosoma cruzi [1]; 51.2% with Trypanosoma cruzi [2]; more than 40% in [3]; “<= 10%” in data set [5]; “<= 10%” in data set [6]; “<= 30%” in data set [7]. Also, the outcome in the data set with Trypanosoma cruzi [4] was Active.

On to `Cl.Cl.Cl.NCCN(CCN)CCNCc1ccc2c(c1)Cc1ccccc1-2`, for which the Activity is 34% with Trypanosoma cruzi [8]; 149 U/L in [10]; 31% with Trypanosoma cruzi [11]; “Non-Toxic” in [16]; “<= 10%” in [18]; 5.9% with Trypanosoma cruzi [1]. The Activity was 16.3% in the data set on Trypanosoma cruzi [2]; “<= 10%” in data set [22]; “Non-Toxic” in [24]; less than 10% in data set [26]; 72% with Trypanosoma cruzi [4]; “<= 10%” in [5]. Moreover, in [6], the Activity entry is on record as “<= 10%”. The selectivity ratio in [9] was 117; in data set [17], 57.5; in data set [21], 91.3; in data set [23], 365; in [25] it was 120; in [27] it was 100. Also, the pIC50 in the data set with Trypanosoma cruzi [12] was 4.58; with Trypanosoma cruzi [13] it was 5.32; in [20] it was less than 4.00; in the data set with Trypanosoma cruzi [28] it was 4.91. Also, the result in the data set on Trypanosoma cruzi [14], in the data set on Trypanosoma cruzi [15] and in the data set on Trypanosoma cruzi [19] was Active.

Turning to `Cl.Cl.Cl.Cl.Cl.Cl.c1ccc2nc(CNCCN(CCNCc3ccc4ccccc4n3)CCNCc3ccc4ccccc4n3)ccc2c1`, the Activity is on record as 49% with Trypanosoma cruzi [8]; 149 U/L in data set [10]; 38% in the data set with Trypanosoma cruzi [11]; “Non-Toxic” in [16]; “<= 10%” in data set [18]; more than 40% in data set [3]. For the same compound, the Activity entry in data set [24] was “Non-Toxic”; in [26], less than 10%; in data set [7], “<= 30%”. For the same compound, the selectivity ratio in data set [9] was found to be 707; in [17], 84.8; in data set [21], 112; in data set [23], 692; in data set [25] it was 1360; in [27], 890. Further, the pIC50 in the data set with Trypanosoma cruzi [12] is 4.82; in the data set with Trypanosoma cruzi [13] it was 5.62; in data set [20], less than 4.00; in the data set on Trypanosoma cruzi [28] it was 5.96. For the same compound, the outcome in the data set on Trypanosoma cruzi [14], in the data set on Trypanosoma cruzi [15] and in the data set with Trypanosoma cruzi [19] was Active.
